molecular target: hQC (Homo sapiens, UniProt Q16769); experiment: Inhibitor assay for glutaminyl cyclase activity (fluorometric, H-Gln-βNA / H-Gln-AMC); format: biochemical; settings: compound from preparative synthesis, purified; read-out: IC50 hQC
How it was run: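 Ki values came from fitting progress curves to a competitive inhibition model; rapid screens used 4 mM inhibitor with substrate at KM. QC activity was read at 30 °C via auxiliary pyroglutamyl aminopeptidase releasing βNA (0.2 mM H-Gln-βNA, 0.2 M Tris pH 8.0, 20 mM EDTA) or AMC (0.05 M Tris pH 8.0, 5 mM EDTA).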

Sequence of hQC (Q16769 29-361): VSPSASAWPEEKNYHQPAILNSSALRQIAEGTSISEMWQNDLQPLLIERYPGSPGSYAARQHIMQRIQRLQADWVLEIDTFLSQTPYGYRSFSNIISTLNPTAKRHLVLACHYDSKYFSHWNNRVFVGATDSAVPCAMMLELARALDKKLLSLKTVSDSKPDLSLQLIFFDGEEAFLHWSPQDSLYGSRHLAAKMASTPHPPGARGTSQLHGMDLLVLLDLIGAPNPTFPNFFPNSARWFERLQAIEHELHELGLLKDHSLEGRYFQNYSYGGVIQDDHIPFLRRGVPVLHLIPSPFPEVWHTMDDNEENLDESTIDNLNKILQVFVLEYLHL

Row | IC50 | Compound
1 | 203 nM | CCCC(=O)C1=C(O)C(=O)N(c2ccc3[nH]cnc3c2)C1c1ccc(C)o1 (stereo not drawn) [Compound 256, 1-(1H-Benzoimidazol-5-yl)-4-butyryl-3-hydroxy-5-(5-methyl-furan-2-yl)-1,5-dihydro-pyrrol-2-one]

same assay, conditions: read-out: IC50

Row | Compound | IC50
2 | CCCCCC1C(CC)=C(O)C(=O)N1CCCn1ccnc1 (stereo not drawn) [Compound 232, 4-Ethyl-3-hydroxy-1-(3-imidazol-1-yl-propyl)-5-pentyl-1,5-dihydro-pyrrol-2-one] | 40 nM
3 | CCC1=C(O)C(=O)N(CCCn2ccnc2)C1C (stereo not drawn) [Compound 233, 4-Ethyl-3-hydroxy-1-(3-imidazol-1-yl-propyl)-5-methyl-1,5-dihydro-pyrrol-2-one] | 2200 nM
4 | CCC1=C(O)C(=O)N(CCCn2ccnc2)C1/C=C/c1ccccc1 (stereo not drawn) [Compound 235, 4-Ethyl-3-hydroxy-1-(3-imidazol-1-yl-propyl)-5-(styryl)-1,5-dihydro-pyrrol-2-one] | 5800 nM
5 | CCC1=C(O)C(=O)N(CCCn2ccnc2)C1c1ccccc1 (stereo not drawn) [Compound 236, 4-Ethyl-3-hydroxy-1-(3-imidazol-1-yl-propyl)-5-phenyl-1,5-dihydro-pyrrol-2-one] | 1300 nM
6 | CCC1=C(O)C(=O)N(CCCn2ccnc2)C1C1=CCCCC1 (stereo not drawn) [Compound 238, 5-Cyclohex-1-enyl-4-ethyl-3-hydroxy-1-(3-imidazol-1-yl-propyl)-1,5-dihydro-pyrrol-2-one] | 40 nM
7 | CCC1=C(O)C(=O)N(CCCn2ccnc2)C1c1c[nH]c2cc(C)ccc12 (stereo not drawn) [Compound 239, 4-Ethyl-3-hydroxy-1-(3-imidazol-1-yl-propyl)-5-(6-methyl-1H-indol-3-yl)-1,5-dihydro-pyrrol-2-one] | 400 nM
8 | CCC1=C(O)C(=O)N(CCCn2ccnc2)C1Cc1ccccc1 (stereo not drawn) [Compound 242, 5-Benzyl-4-ethyl-3-hydroxy-1-(3-imidazol-1-yl-propyl)-1,5-dihydro-pyrrol-2-one] | 2200 nM
9 | CCC1=C(O)C(=O)N(CCCn2ccnc2)C1c1ccncc1 (stereo not drawn) [Compound 244, 4-Ethyl-3-hydroxy-1-(3-imidazol-1-yl-propyl)-5-pyridin-4-yl-1,5-dihydro-pyrrol-2-one] | 400 nM
10 | CCC1=C(O)C(=O)N(CCCn2ccnc2)C1c1cccc(Cl)c1 (stereo not drawn) [Compound 249, 5-(3-Chloro-phenyl)-4-ethyl-3-hydroxy-1-(3-imidazol-1-yl-propyl)-1,5-dihydro-pyrrol-2-one] | 40 nM
11 | CCC1=C(O)C(=O)N(CCCn2ccnc2)C1c1ccc(O)cc1 (stereo not drawn) [Compound 251, 4-Ethyl-3-hydroxy-5-(4-hydroxy-phenyl)-1-(3-imidazol-1-yl-propyl)-1,5-dihydro-pyrrol-2-one] | 400 nM
12 | CC(C)C1=C(O)C(=O)N(c2ccc3[nH]cnc3c2)C1c1cc(F)cc(F)c1F (stereo not drawn) [Compound 253, 1-(1H-Benzoimidazol-5-yl)-3-hydroxy-4-isopropyl-5-(2,3,5-trifluoro-phenyl)-1,5-dihydro-pyrrol-2-one] | 1300 nM
13 | O=C(C1=C(O)C(=O)N(c2ccc3[nH]cnc3c2)C1c1ccc(Cl)c(C(F)(F)F)c1)c1cc2ccccc2s1 (stereo not drawn) [Compound 257, 4-(Benzo[b]thiophene-2-carbonyl)-1-(1H-benzoimidazol-5-yl)-5-(4-chloro-3-trifluoromethyl-phenyl)-3-hydroxy-1,5-dihydro-pyrrol-2-one] | 3370 nM
14 | CCCCCC(=O)C1=C(O)C(=O)N(c2ccc3[nH]cnc3c2)C1c1ccc(C)o1 (stereo not drawn) [Compound 258, 1-(1H-Benzoimidazol-5-yl)-4-hexanoyl-3-hydroxy-5-(5-methyl-furan-2-yl)-1,5-dihydro-pyrrol-2-one] | 2560 nM
15 | CC(=O)C1=C(O)C(=O)N(c2ccc3[nH]cnc3c2)C1c1cc(F)cc(F)c1F (stereo not drawn) [Compound 261, 4-Acetyl-1-(1H-benzoimidazol-5-yl)-3-hydroxy-5-(2,3,5-trifluoro-phenyl)-1,5-dihydro-pyrrol-2-one] | 310 nM
16 | Cc1ccc2occ(C3C(c4ccccc4)=C(O)C(=O)N3c3ccc4[nH]cnc4c3)c(=O)c2c1 (stereo not drawn) [Compound 262, 1-(1H-Benzoimidazol-5-yl)-3-hydroxy-5-(6-methyl-4-oxo-4H-chromen-3-yl)-4-phenyl-1,5-dihydro-pyrrol-2-one] | 850 nM
17 | O=C1C(O)=C(c2ccccc2)C(c2ccc(Cl)c(Cl)c2)N1c1ccc2[nH]cnc2c1 (stereo not drawn) [Compound 264, 1-(1H-Benzoimidazol-5-yl)-5-(3,4-dichloro-phenyl)-3-hydroxy-4-phenyl-1,5-dihydro-pyrrol-2-one] | 1570 nM
18 | CC1=C(O)C(=O)N(c2ccc3[nH]cnc3c2)C1c1ccc(O)cc1O (stereo not drawn) [Compound 265, 1-(1H-Benzoimidazol-5-yl)-5-(2,4-dihydroxy-phenyl)-3-hydroxy-4-methyl-1,5-dihydro-pyrrol-2-one] | 3370 nM
19 | CC(=O)C1=C(O)C(=O)N(c2ccc3[nH]cnc3c2)C1C1CC1 (stereo not drawn) [Compound 266, 4-Acetyl-1-(1H-benzoimidazol-5-yl)-5-cyclopropyl-3-hydroxy-1,5-dihydro-pyrrol-2-one] | 2290 nM
20 | CCCC(=O)C1=C(O)C(=O)N(c2ccc3[nH]cnc3c2)C1c1c[nH]c2ccccc12 (stereo not drawn) [Compound 268, 1-(1H-Benzoimidazol-5-yl)-4-butyryl-3-hydroxy-5-(1H-indol-3-yl)-1,5-dihydro-pyrrol-2-one] | 8590 nM

Now from value to compound:

Row | IC50 | Compound
21 | 400 nM | CCC1=C(O)C(=O)N(CCCn2ccnc2)C1c1ccc(C)c(C)c1 (stereo not drawn) [Compound 231, 5-(3,4-Dimethyl-phenyl)-4-ethyl-3-hydroxy-1-(3-imidazol-1-yl-propyl)-1,5-dihydro-pyrrol-2-one]
22 | 1300 nM | CCC1=C(O)C(=O)N(CCCn2ccnc2)C1c1ccc(CO)o1 (stereo not drawn) [Compound 234, 4-Ethyl-3-hydroxy-5-(5-hydroxymethyl-furan-2-yl)-1-(3-imidazol-1-yl-propyl)-1,5-dihydro-pyrrol-2-one]
23 | 400 nM | CCC1=C(O)C(=O)N(CCCn2ccnc2)C1C1CCC=CO1 (stereo not drawn) [Compound 237, 5-(3,4-Dihydro-2H-pyran-2-yl)-4-ethyl-3-hydroxy-1-(3-imidazol-1-yl-propyl)-1,5-dihydro-pyrrol-2-one]
24 | 40 nM | CCC1=C(O)C(=O)N(CCCn2ccnc2)C1C(F)(F)F (stereo not drawn) [Compound 240, 4-Ethyl-3-hydroxy-1-(3-imidazol-1-yl-propyl)-5-trifluoromethyl-1,5-dihydro-pyrrol-2-one]
25 | 40 nM | CCC1=C(O)C(=O)N(CCCn2ccnc2)C1c1c[nH]c2ccccc12 (stereo not drawn) [Compound 241, 4-Ethyl-3-hydroxy-1-(3-imidazol-1-yl-propyl)-5-(1H-indol-3-yl)-1,5-dihydro-pyrrol-2-one]
26 | 400 nM | CCC1=C(O)C(=O)N(CCCn2ccnc2)C1c1ccccn1 (stereo not drawn) [Compound 243, 4-Ethyl-3-hydroxy-1-(3-imidazol-1-yl-propyl)-5-pyridin-2-yl-1,5-dihydro-pyrrol-2-one]
27 | 40 nM | CCC1=C(O)C(=O)N(CCCn2ccnc2)C1c1cccs1 (stereo not drawn) [Compound 245, 4-Ethyl-3-hydroxy-1-(3-imidazol-1-yl-propyl)-5-thiophen-2-yl-1,5-dihydro-pyrrol-2-one]
28 | 1300 nM | CCC1=C(O)C(=O)N(CCCn2ccnc2)C1C1CC1 (stereo not drawn) [Compound 246, 5-Cyclopropyl-4-ethyl-3-hydroxy-1-(3-imidazol-1-yl-propyl)-1,5-dihydro-pyrrol-2-one]
29 | 1300 nM | CCC1=C(O)C(=O)N(CCCn2ccnc2)C1c1ccco1 (stereo not drawn) [Compound 247, 4-Ethyl-5-furan-2-yl-3-hydroxy-1-(3-imidazol-1-yl-propyl)-1,5-dihydro-pyrrol-2-one]
30 | 2200 nM | CCCCC1C(CC)=C(O)C(=O)N1CCCn1ccnc1 (stereo not drawn) [Compound 248, 5-Butyl-4-ethyl-3-hydroxy-1-(3-imidazol-1-yl-propyl)-1,5-dihydro-pyrrol-2-one]
31 | 1300 nM | CCC1=C(O)C(=O)N(CCCn2ccnc2)C1c1ccccc1F (stereo not drawn) [Compound 250, 4-Ethyl-5-(2-fluoro-phenyl)-3-hydroxy-1-(3-imidazol-1-yl-propyl)-1,5-dihydro-pyrrol-2-one]
32 | 400 nM | CCC1=C(O)C(=O)N(CCCn2ccnc2)C1c1cccc(O)c1 (stereo not drawn) [Compound 252, 4-Ethyl-3-hydroxy-5-(3-hydroxy-phenyl)-1-(3-imidazol-1-yl-propyl)-1,5-dihydro-pyrrol-2-one]
33 | 2200 nM | CCCC(=O)C1=C(O)C(=O)N(c2ccc3[nH]cnc3c2)C1c1nccs1 (stereo not drawn) [Compound 254, 1-(1H-Benzoimidazol-5-yl)-4-butyryl-3-hydroxy-5-thiazol-2-yl-1,5-dihydro-pyrrol-2-one]
34 | 2470 nM | O=C(C1=C(O)C(=O)N(c2ccc3[nH]cnc3c2)C1c1c[nH]cn1)C1CCCCC1 (stereo not drawn) [Compound 255, 1-(1H-Benzoimidazol-5-yl)-4-cyclohexanecarbonyl-3-hydroxy-5-(1H-imidazol-4-yl)-1,5-dihydro-pyrrol-2-one]
35 | 4 nM | CCCC(=O)C1=C(O)C(=O)N(c2ccc3[nH]cnc3c2)C1c1ccc(C)o1 (stereo not drawn) [Compound 256, 1-(1H-Benzoimidazol-5-yl)-4-butyryl-3-hydroxy-5-(5-methyl-furan-2-yl)-1,5-dihydro-pyrrol-2-one]
36 | 1300 nM | CC1=C(O)C(=O)N(c2ccc3nc[nH]c3c2)C1c1cccc(F)c1F (stereo not drawn) [Compound 259, 1-(1H-Benzoimidazol-5-yl)-5-(2,3-difluoro-phenyl)-3-hydroxy-4-methyl-1,5-dihydro-pyrrol-2-one]
37 | 40 nM | Cc1cccc(C2C(C(=O)C3CC3)=C(O)C(=O)N2c2ccc3[nH]cnc3c2)c1 (stereo not drawn) [Compound 260, 1-(1H-Benzoimidazol-5-yl)-4-cyclopropanecarbonyl-3-hydroxy-5-m-tolyl-1,5-dihydro-pyrrol-2-one]
38 | 2020 nM | O=C(C1=C(O)C(=O)N(c2ccc3[nH]cnc3c2)C1c1ccc(CO)o1)c1ccsc1 (stereo not drawn) [Compound 263, 1-(1H-Benzoimidazol-5-yl)-3-hydroxy-5-(5-hydroxymethyl-furan-2-yl)-4-(thiophene-3-carbonyl)-1,5-dihydro-pyrrol-2-one]
39 | 7510 nM | O=C1C(O)=C(c2ccccc2)C(c2cccc3cccnc23)N1c1ccc2[nH]cnc2c1 (stereo not drawn) [Compound 267, 1-(1H-Benzoimidazol-5-yl)-3-hydroxy-4-phenyl-5-quinolin-8-yl-1,5-dihydro-pyrrol-2-one]
